Experiments:
[1] = biological target: T1, hPI3Kβ (PIK3CB wt/PIK3R1) (Homo sapiens, UniProt P42338); assay: lipid kinase assay (ADP-Glo), PI3Kβ; type: biochemical
T1 construct: purchased ProQinase, Germany 1168‐1165‐1
Procedure: In vitro selection, lipid kinase assay: To determine the inhibitory activity of the new molecular entities on PI3K enzyme, a lipid kinase assay was performed: recombinant proteins (30 ng), human PI3Kα (PIK3CA/PIK3R1, #1161‐1165‐1 ProQinase–Germany), hPI3Kβ (PIK3CB wt/PIK3R1, #1168‐1165‐1 ProQinase, Germany), hPI3Kγ (PIK3CG, #1163‐0000‐1 ProQinase, Germany), hPI3Kδ (PIK3CD/PIK3R1, #1162–1165‐1 ProQinase, Germany), hPI3K‐C2α (PIK3C2A, #14‐906 Merck Millipore_Merck KGaA, Germany), hPI3K‐C2β (PIK3C2B, #14‐907 Merck Millipore_Merck KGaA, Germany), hPI3K‐c2γ (PIK3C2G, #1207‐0000‐1 ProQinase, Germany), and hVps34 (PIK3C3, #1160‐0000‐1 ProQinase, Germany), were incubated in kinase buffer {12.5 μL; 20 mM Tris‐HCl pH 7.5, 10 mM MgCl2, 10 μM ATP, 0.05 mg mL^−1 BSA, 0.5 mM EDTA, 5 mM HEPES pH 7.5, for PI3Kα,PI3Kβ, PI3Kγ, PI3Kδ, PI3KC‐2α, and PI3KC‐2γ; 15 mM MnCl2, 5 mM EGTA, 100 μM ATP, 50 mM HEPES pH 7.5, 100 mM NaCl, and 0.03 % CHAPS for PI3K‐C2β and VPS34 {BSA=bovine serum albumin; EDTA=ethylenediaminetetraacetic acid; HEPES=4‐(2‐hydroxyethyl)‐1‐piperazineethanesulfonic acid; EGTA=ethylene glycol‐bis(2‐aminoethylether)‐N,N,N′,N′‐tetraacetic acid; CHAPS=3‐[(3‐cholamidopropyl)dimethylammonio]‐1‐propanesulfonate}. In the reaction, the ATP concentration used for different PI3Ks was defined on the basis of the Michaelis–Menten kinetics of each enzyme, provided by the supplier. Reaction was performed in presence of 0.5 mg mL^−1 lipid micelles (1:1 phosphatidylinositol/phosphatidylserine) and in the absence (DMSO alone) or presence of increasing concentrations of each compound (from 0.1 nM to 30 μM). The mixture was kept at room temperature (RT) for 30 min for PI3Kα, PI3Kβ, PI3Kγ, PI3Kδ, PI3KC‐2α, and PI3KC‐2γ and for 1 h for PI3K‐C2β and PI3K‐C3. The amount of ADP produced in the reaction was measured by using the ADP‐Glo Kinase Assay kit from Promega (#V9102) and a luminescence reader (Glomax multi detection system, Promega, model number 9301‐010).
The residual PI3K lipid kinase activity in the presence of each molecule at different concentrations was related to the control, intended as the recombinant protein in the presence of DMSO alone and was expressed as a percentage. To derive the IC50 value, all data (% of lipid kinase activity) were plotted on a dose–response curve (Graph Pad software), and the IC50 was calculated by using nonlinear regression fit (equation [log agonist] versus response).

[2] = metabolic stability in rat liver microsomes (RLM); type: in vitro ADME
Procedure: Twelve esters were prepared (see the Experimental Section for their synthesis and the Supporting Information for chromatographic methods) and evaluated in terms of metabolic stability. For this task, a combined approach based on microsomal and plasmatic stability assays was exploited considering the relevance of the plasmatic and hepatic tissues in esterase activity. Microsomal stability of the selected esters was evaluated by monitoring the disappearance of the substrate incubated in rat liver microsomes (RLM) at 50 μM concentration, in the presence of NADPH. In Table 4, the percentage of the remaining substrate, after incubation (t=60 min), with respect to the initial amount is reported. Overall, the compounds underwent a relevant metabolic transformation, and the substrate depletion ranged from 0 (for 76) to 100 % (for 70). This is mainly due to hydrolysis of the ester function, whereas the metabolites arising from the oxidation catalyzed by the NADPH‐dependent monooxygenase system were negligible from a quantitative point of view. Indeed, the main metabolite formed during the incubation of the esters was corresponding carboxyl derivative 37. […] Moreover, whereas CH2‐pyridin‐4‐yl ester 70 was completely metabolized, corresponding benzyl derivative 65 and piperonyl derivative 72 were more hydrolytically stable, and their residual substrates were 53 and 83 %, respectively. The hydrolytic stability of the selected esters was also evaluated by monitoring the depletion of the substrate incubated at a 50 μM concentration in mouse plasma over a period of 30 min. As expected, the plasmatic metabolic fate of the esters was characterized by the formation of 37 as the only metabolite (see Figure S4). The rate constant k [min^−1], derived for the substrate peak area versus time curve (single‐exponential decay equation—GraphPad Prism software, Inc., San Diego, CA (USA); see Figure S5) was used to calculate the in vitro half‐life t 1/2 [min], and the values are reported in Table 4.
Metabolic stability of PI3K inhibitors in RLM fraction
The standard incubation mixture (500 µL final volume), in 1.5 mL Eppendorf tubes, was carried out in a 50 mM TRIS-HCl buffer (pH 7.4) containing 3.3 mM MgCl2, 1.3 mM NADPNa2, 3.3 mM glucose 6-phosphate, 0.4 Units/mL glucose 6-phosphate dehydrogenase (NADPH regenerating system), acetonitrile as cosolvent (1% of final volume) and 50 µM of substrate. After pre-equilibration of the mixture, an appropriate volume of rat microsomal suspension was added to give a final protein concentration of 1 mg/mL. The mixture was shaken for 1 hour at 37°C and the reaction was quenched by diluting the samples with 500 µL of ice-cold acetonitrile. The samples were then centrifuged at 13,000 rpm for 10 min, and the supernatant was directly injected onto the HPLC column for analysis. Control incubations were performed without microsomes. […]
A Shimadzu HPLC system (Shimadzu, Kyoto, Japan), consisting of two LC-10AD Vp module pumps, an SLC-10A Vp system controller, an SIL-10AD Vp autosampler, and a DGU-14-A on-line degasser was used for the analysis. All the chromatographic separations were performed on a Phenomenex Luna C18 5µm (150 x 4.6 mm i.d.) (Phenomenex srl, Castel Bolognese, Italy) as a stationary phase protected by a Luna C18 SecurityGuard (Phenomenex srl). The SPD-M10Avp photodiode array detector was used to detect the analyte at 254 nm. LC Solution 1.24 software was used to process the chromatograms. Aliquots (20 µL) of supernatants obtained from incubations were injected onto the HPLC system and eluted with a mobile phase (flow rate: 1 mL/min) consisting of solvent A- 0.5% aqueous formic acid solution and solvent B- acetonitrile/methanol 80:20.
The eluants were filtered through a 0.45-µm pore size polyvinylidene difluoride membrane […]
The following gradients programs were used: […]

T1 sequence (P42338 whole entry): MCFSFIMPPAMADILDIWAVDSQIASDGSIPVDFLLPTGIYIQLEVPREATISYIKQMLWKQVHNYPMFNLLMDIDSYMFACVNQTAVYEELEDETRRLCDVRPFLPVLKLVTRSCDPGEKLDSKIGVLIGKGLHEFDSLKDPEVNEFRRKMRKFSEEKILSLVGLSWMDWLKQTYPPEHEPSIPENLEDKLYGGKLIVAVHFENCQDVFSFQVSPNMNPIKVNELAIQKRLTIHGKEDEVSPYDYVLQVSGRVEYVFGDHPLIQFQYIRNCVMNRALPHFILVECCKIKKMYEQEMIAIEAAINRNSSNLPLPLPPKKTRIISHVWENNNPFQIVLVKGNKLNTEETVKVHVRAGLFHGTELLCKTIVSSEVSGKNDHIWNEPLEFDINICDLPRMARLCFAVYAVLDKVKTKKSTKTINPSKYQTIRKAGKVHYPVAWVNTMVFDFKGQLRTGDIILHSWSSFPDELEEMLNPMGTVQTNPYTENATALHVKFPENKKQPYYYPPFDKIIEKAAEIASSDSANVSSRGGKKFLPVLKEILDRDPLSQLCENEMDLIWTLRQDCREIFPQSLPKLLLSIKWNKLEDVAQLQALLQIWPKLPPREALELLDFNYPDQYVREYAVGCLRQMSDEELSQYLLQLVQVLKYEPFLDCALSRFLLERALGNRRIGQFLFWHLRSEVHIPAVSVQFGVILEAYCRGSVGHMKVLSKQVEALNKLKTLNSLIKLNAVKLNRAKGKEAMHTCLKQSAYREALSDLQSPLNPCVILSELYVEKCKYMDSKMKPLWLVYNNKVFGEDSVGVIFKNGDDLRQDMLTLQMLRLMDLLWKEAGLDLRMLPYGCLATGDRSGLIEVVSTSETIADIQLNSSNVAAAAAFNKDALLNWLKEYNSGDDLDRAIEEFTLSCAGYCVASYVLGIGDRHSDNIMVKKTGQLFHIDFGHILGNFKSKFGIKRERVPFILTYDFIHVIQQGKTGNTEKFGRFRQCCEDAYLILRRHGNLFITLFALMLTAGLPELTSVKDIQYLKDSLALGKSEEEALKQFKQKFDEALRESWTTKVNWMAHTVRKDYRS
T1 sequence (P27986 whole entry partner): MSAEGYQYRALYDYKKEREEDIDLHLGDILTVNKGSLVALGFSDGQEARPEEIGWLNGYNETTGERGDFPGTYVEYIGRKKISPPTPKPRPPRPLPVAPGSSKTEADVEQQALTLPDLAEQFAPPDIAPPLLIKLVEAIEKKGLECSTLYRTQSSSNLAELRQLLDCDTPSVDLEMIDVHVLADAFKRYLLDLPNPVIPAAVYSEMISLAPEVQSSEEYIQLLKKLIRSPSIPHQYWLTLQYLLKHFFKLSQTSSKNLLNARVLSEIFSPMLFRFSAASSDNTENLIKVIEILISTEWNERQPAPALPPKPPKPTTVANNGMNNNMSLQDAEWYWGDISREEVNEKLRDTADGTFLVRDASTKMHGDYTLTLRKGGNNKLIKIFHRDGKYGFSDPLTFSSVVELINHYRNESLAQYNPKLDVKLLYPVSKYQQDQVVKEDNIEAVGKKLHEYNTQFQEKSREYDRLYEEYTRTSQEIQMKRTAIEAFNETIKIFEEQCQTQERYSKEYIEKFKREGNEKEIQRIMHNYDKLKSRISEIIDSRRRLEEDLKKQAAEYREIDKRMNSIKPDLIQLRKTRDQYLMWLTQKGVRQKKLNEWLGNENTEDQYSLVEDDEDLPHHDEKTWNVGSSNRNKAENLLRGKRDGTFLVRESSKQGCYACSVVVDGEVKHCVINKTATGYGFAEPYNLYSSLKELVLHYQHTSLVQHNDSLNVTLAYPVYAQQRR

Residual microsomal substrate (t=60 min) ([2]; RLM, 50 μM substrate, with NADPH, LC–UV)	% residual substrate, NADPH (without RLM) ([2]; control incubation without microsomes, 50 μM, 60 min)	Compound	IC50 ([1]; Table 2, mean of at least three determinations, 95 % confidence intervals)	inhibition at 1 µM ([1]; determined at 1 μM, at least triplicate, read-out: Inhibitory activity, PI3K isoform β)
		O=C(O)c1cccc(Cn2cc(-c3cccc4c(=O)cc(N5CCOCC5)[nH]c34)nn2)c1 [Compound 37, 3‐{[4‐(2‐Morpholino‐4‐oxo‐1,4‐dihydroquinolin‐8‐yl)‐1H‐1,2,3‐triazol‐1‐yl]methyl}benzoic acid]	59 ± 15 nM	> 50%
20%	100%	COC(=O)c1cccc(Cn2cc(-c3cccc4c(=O)cc(N5CCOCC5)[nH]c34)nn2)c1 [Compound 64, Methyl 3‐{[4‐(2‐morpholino‐4‐oxo‐1,4‐dihydroquinolin‐8‐yl)‐1H‐1,2,3‐triazol‐1‐yl]methyl}benzoate]		

— PMC5697638, “Identification of a Potent Phosphoinositide 3‐Kinase Pan Inhibitor Displaying a Strategic Carboxylic Acid Group and Development of Its Prodrugs” (Chemmedchem, 2017)
